Assay results as given in PubChem BioAssay AID248 (DTP/NCI, 2004).
Inconclusive results and toxic doses are left out. Cut-off read from the data, not from the text of the source: active = T/C of 150% or more; inactive = T/C below 125%.

Test system: L1210 leukemia ip in BDF1 mice, survival T/C
Experiment: NCI In Vivo Anticancer Drug Screen. Data for tumor model L1210 Leukemia (intraperitoneal) in B6D2F1 (BDF1) mice
Conditions: endpoint: mean survival time, higher = longer survival
Procedure, shortened: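 Ratio derived from survival: compound-dosed mice over vehicle-dosed mice, all bearing a transplantable tumor.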

[1] = dose: 100.0 mg/kg/injection, schedule: Q01DX001 (ip), vehicle: saline
[2] = dose: 200.0 mg/kg/injection, schedule: Q01DX001 (ip), vehicle: saline
[3] = dose: 400.0 mg/kg/injection, schedule: Q01DX001 (ip), vehicle: saline
[4] = dose: 100.0 mg/kg/injection, schedule: Q01DX009 (ip), vehicle: Klucel (hydroxypropylcellulose) (HPC)
[5] = dose: 100.0 mg/kg/injection, schedule: Q04DX003 (ip), vehicle: Klucel (hydroxypropylcellulose) (HPC)
[6] = dose: 200.0 mg/kg/injection, schedule: Q01DX009 (ip), vehicle: Klucel (hydroxypropylcellulose) (HPC)
[7] = dose: 200.0 mg/kg/injection, schedule: Q04DX003 (ip), vehicle: Klucel (hydroxypropylcellulose) (HPC)
[8] = dose: 400.0 mg/kg/injection, schedule: Q04DX003 (ip), vehicle: Klucel (hydroxypropylcellulose) (HPC)
[9] = dose: 100.0 mg/kg/injection, schedule: Q04DX003 (ip), vehicle: saline with Tween-80
[10] = dose: 200.0 mg/kg/injection, schedule: Q04DX003 (ip), vehicle: saline with Tween-80
[11] = dose: 400.0 mg/kg/injection, schedule: Q04DX003 (ip), vehicle: saline with Tween-80
[12] = dose: 100.0 mg/kg/injection, schedule: Q01DX009 (ip), vehicle: saline with Tween-80
[13] = dose: 200.0 mg/kg/injection, schedule: Q01DX009 (ip), vehicle: saline with Tween-80
[14] = dose: 25.0 mg/kg/injection, schedule: Q01DX009 (ip), vehicle: saline with Tween-80
[15] = dose: 50.0 mg/kg/injection, schedule: Q01DX009 (ip), vehicle: saline with Tween-80

Measured: T/C

[O-][N+](=Nc1ccc(Cl)cc1)c1ccc(Cl)cc1
inactive: dose: 100.0 mg/kg/injection, schedule: Q01DX001 (ip), vehicle: gum acacia 92 % of control | dose: 100.0 mg/kg/injection, schedule: Q04DX003 (ip), vehicle: gum acacia 97 % of control | dose: 200.0 mg/kg/injection, schedule: Q01DX001 (ip), vehicle: gum acacia 93 % of control | dose: 200.0 mg/kg/injection, schedule: Q04DX003 (ip), vehicle: gum acacia 87 % of control | dose: 400.0 mg/kg/injection, schedule: Q01DX001 (ip), vehicle: gum acacia 92 % of control | dose: 400.0 mg/kg/injection, schedule: Q04DX003 (ip), vehicle: gum acacia 91 % of control

CCC1SC(CC)(CC(C)C)C(=O)NC1=O (configuration not stated)
inactive: dose: 100.0 mg/kg/injection, schedule: Q01DX001 (ip), vehicle: carboxymethylcellulose (CMC) 102 % of control | dose: 200.0 mg/kg/injection, schedule: Q01DX001 (ip), vehicle: carboxymethylcellulose (CMC) 94 % of control | dose: 400.0 mg/kg/injection, schedule: Q01DX001 (ip), vehicle: carboxymethylcellulose (CMC) 94 % of control

Fc1c(F)c(F)[c]([Sn]([c]2ccccc2)([c]2ccccc2)[c]2ccccc2)c(F)c1F
inactive: dose: 1.56 mg/kg/injection, schedule: Q01DX009 (ip), vehicle: saline with Tween-80 102 % of control | dose: 3.13 mg/kg/injection, schedule: Q01DX009 (ip), vehicle: saline with Tween-80 94 % of control | dose: 6.25 mg/kg/injection, schedule: Q01DX009 (ip), vehicle: saline with Tween-80 92 % of control

CCSC(C)(C)C(C)(C#N)NNC(C)(C#N)C(C)(C)SCC (configuration not stated)
inactive: [1] 101 % of control | [2] 95 % of control | [3] 93 % of control

O=C(NCCCl)Nc1c2ccccc2nc2ccccc12
inactive: [4] 97 % of control | [5] 103 % of control | [6] 89 % of control | [7] 103 % of control | [8] 104 % of control

O=[N+]([O-])c1cccc(OCCOc2cccc([N+](=O)[O-])c2)c1
inactive: [1] 97 % of control | [2] 96 % of control | [3] 103 % of control

c1ccc(-c2c(-c3ccc4c(c3)CCCC4)c(-c3ccccc3)c3c(c2-c2ccccc2)-c2cccc4cccc-3c24)cc1
inactive: dose: 100.0 mg/kg/injection, schedule: Q01DX001 (ip), vehicle: saline with Tween-80 87 % of control | dose: 200.0 mg/kg/injection, schedule: Q01DX001 (ip), vehicle: saline with Tween-80 87 % of control | dose: 400.0 mg/kg/injection, schedule: Q01DX001 (ip), vehicle: saline with Tween-80 100 % of control

CC(=O)Nc1cccc(Cc2ccccc2)c1
inactive: dose: 100.0 mg/kg/injection, schedule: Q01DX001 (ip), vehicle: Klucel (hydroxypropylcellulose) (HPC) 95 % of control | [5] 100 % of control | dose: 200.0 mg/kg/injection, schedule: Q01DX001 (ip), vehicle: Klucel (hydroxypropylcellulose) (HPC) 97 % of control | [7] 103 % of control | dose: 400.0 mg/kg/injection, schedule: Q01DX001 (ip), vehicle: Klucel (hydroxypropylcellulose) (HPC) 97 % of control | [8] 108 % of control

O=[N+]([O-])c1cccc(-c2cc(-c3cccs3)cc(-c3ccccc3)n2)c1
inactive: dose: 100.0 mg/kg/injection, schedule: Q04DX002 (ip), vehicle: gum acacia 93 % of control | dose: 200.0 mg/kg/injection, schedule: Q04DX002 (ip), vehicle: gum acacia 93 % of control | dose: 400.0 mg/kg/injection, schedule: Q04DX002 (ip), vehicle: gum acacia 93 % of control

O=C(CSCc1ccccc1)c1ccccc1
inactive: [9] 90 % of control | [10] 90 % of control | [11] 100 % of control

CCOC(=O)CNC(=O)Oc1ccc(NC(C)=O)cc1
inactive: [12] 100 % of control | [13] 95 % of control | dose: 400.0 mg/kg/injection, schedule: Q01DX009 (ip), vehicle: saline with Tween-80 108 % of control

CN(CC1CCCCC1=O)CC1CCCCC1=O (configuration not stated)
inactive: dose: 100.0 mg/kg/injection, schedule: Q01DX001 (ip), vehicle: steriod suspending solution 97 % of control | dose: 200.0 mg/kg/injection, schedule: Q01DX001 (ip), vehicle: steriod suspending solution 104 % of control | dose: 400.0 mg/kg/injection, schedule: Q01DX001 (ip), vehicle: steriod suspending solution 106 % of control

O=C(O)CN1C(=O)c2ccccc2C1=O
inactive: [14] 91 % of control | [15] 98 % of control | [12] 98 % of control | dose: 100.0 mg/kg/injection, schedule: Q04DX002 (ip), vehicle: saline with Tween-80 100 % of control | dose: 200.0 mg/kg/injection, schedule: Q04DX002 (ip), vehicle: saline with Tween-80 103 % of control | dose: 400.0 mg/kg/injection, schedule: Q04DX002 (ip), vehicle: saline with Tween-80 95 % of control

Cc1cccc(NC(=O)Nc2cccc(C(F)(F)F)c2)n1
inactive: dose: 100.0 mg/kg/injection, schedule: Q01DX009 (ip), vehicle: gum acacia 92 % of control | dose: 200.0 mg/kg/injection, schedule: Q01DX009 (ip), vehicle: gum acacia 87 % of control | dose: 400.0 mg/kg/injection, schedule: Q01DX009 (ip), vehicle: gum acacia 89 % of control

S=C=Nc1ccc(Cl)c(Cl)c1
inactive: dose: 12.5 mg/kg/injection, schedule: Q01DX009 (ip), vehicle: saline with Tween-80 104 % of control | [14] 94 % of control | [15] 102 % of control

C=CCOc1cccc(OCC=C)c1C
inactive: [9] 100 % of control | [10] 98 % of control | [11] 98 % of control

CCC(C)C1(C)OC1C(=O)OC (configuration not stated)
inactive: [12] 93 % of control | [9] 100 % of control | [13] 86 % of control | [10] 101 % of control | [11] 97 % of control

O=C(O)c1cc(N=Nc2ccccc2)ccc1O
inactive: [15] 96 % of control | dose: 50.0 mg/kg/injection, schedule: Q04DX003 (ip), vehicle: other 93 % of control | dose: 100.0 mg/kg/injection, schedule: Q01DX001 (ip), vehicle: other 101 % of control | [12] 94 % of control | dose: 100.0 mg/kg/injection, schedule: Q04DX003 (ip), vehicle: other 93 % of control | dose: 100.0 mg/kg/injection, schedule: Q04DX003 (ip), vehicle: saline 96 % of control | dose: 200.0 mg/kg/injection, schedule: Q01DX001 (ip), vehicle: other 107 % of control | dose: 200.0 mg/kg/injection, schedule: Q04DX003 (ip), vehicle: other 98 % of control | dose: 200.0 mg/kg/injection, schedule: Q04DX003 (ip), vehicle: saline 87 % of control

C=CCCCCCCCCC(=O)NN1CCOCC1
inactive: [9] 98 % of control | [10] 92 % of control | [11] 92 % of control

CN1C(=O)c2c(Cl)c(Cl)c(Cl)c(Cl)c2C1=O
inactive: dose: 222.0 mg/kg/injection, schedule: Q01DX Z (ip), vehicle: methylcellulose (MC) 105 % of control | dose: 333.0 mg/kg/injection, schedule: Q01DX Z (ip), vehicle: methylcellulose (MC) 105 % of control | dose: 500.0 mg/kg/injection, schedule: Q01DX Z (ip), vehicle: methylcellulose (MC) 98 % of control

O=C(Nc1cccc(C(F)(F)F)c1)OCCOc1ccc(Br)cc1
inactive: [4] 98 % of control | [6] 96 % of control | dose: 400.0 mg/kg/injection, schedule: Q01DX009 (ip), vehicle: Klucel (hydroxypropylcellulose) (HPC) 92 % of control
